Laboratory results reported in ChEMBL document CHEMBL4354805, “Discovery of MK-8719, a Potent O-GlcNAcase Inhibitor as a Potential Treatment for Tauopathies” (J Med Chem, 2019).

Experiments:
[1] = biological target: T1, Beta-hexosaminidase subunit beta (Homo sapiens, UniProt P07686); test: Inhibition of human beta hexosaminidase assessed as inhibitory constant using 4-methylumbelliferyl N-acetyl-beta-D-glucosaminide dihydrate as substrate measured every 60 sec for 45 mins by fluorescence spectrophotometry
T1 sequence (P07686 whole entry): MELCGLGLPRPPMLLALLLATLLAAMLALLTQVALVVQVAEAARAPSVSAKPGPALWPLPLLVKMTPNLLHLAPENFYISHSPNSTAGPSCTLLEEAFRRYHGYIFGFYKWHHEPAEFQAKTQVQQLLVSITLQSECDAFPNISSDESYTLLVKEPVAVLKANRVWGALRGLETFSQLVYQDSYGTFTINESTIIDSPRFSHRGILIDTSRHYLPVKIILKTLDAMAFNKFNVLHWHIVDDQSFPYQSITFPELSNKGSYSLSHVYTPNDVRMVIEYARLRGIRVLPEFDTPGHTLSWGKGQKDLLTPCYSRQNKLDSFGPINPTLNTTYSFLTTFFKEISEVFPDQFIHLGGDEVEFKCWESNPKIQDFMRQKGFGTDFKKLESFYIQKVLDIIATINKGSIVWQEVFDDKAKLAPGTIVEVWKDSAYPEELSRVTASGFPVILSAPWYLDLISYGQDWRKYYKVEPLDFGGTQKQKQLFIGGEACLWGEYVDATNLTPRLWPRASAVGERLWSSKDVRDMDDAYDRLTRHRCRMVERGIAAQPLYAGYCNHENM

[2] = Fraction unbound in Wistar Han rat plasma at 2.5 uM by equilibrium dialysis; format: ADME, cell-free
[3] = tested on: Rattus norvegicus; test: Elevation of O-protein in rat brain at 3 mg/kg, po measured after 8 hrs relative to control; format: functional
[4] = Drug uptake in rat brain at 3 mg/kg, po measured after 24 hrs; format: ADME, organism-based; settings: in vivo
[5] = AUCN in Wistar Han rat at 3 mg/kg, po; format: ADME, organism-based; settings: in vivo
[6] = biological target: T2, Protein O-GlcNAcase (Homo sapiens, UniProt O60502); test: Inhibition of recombinant human OGA
T2 sequence (O60502 whole entry): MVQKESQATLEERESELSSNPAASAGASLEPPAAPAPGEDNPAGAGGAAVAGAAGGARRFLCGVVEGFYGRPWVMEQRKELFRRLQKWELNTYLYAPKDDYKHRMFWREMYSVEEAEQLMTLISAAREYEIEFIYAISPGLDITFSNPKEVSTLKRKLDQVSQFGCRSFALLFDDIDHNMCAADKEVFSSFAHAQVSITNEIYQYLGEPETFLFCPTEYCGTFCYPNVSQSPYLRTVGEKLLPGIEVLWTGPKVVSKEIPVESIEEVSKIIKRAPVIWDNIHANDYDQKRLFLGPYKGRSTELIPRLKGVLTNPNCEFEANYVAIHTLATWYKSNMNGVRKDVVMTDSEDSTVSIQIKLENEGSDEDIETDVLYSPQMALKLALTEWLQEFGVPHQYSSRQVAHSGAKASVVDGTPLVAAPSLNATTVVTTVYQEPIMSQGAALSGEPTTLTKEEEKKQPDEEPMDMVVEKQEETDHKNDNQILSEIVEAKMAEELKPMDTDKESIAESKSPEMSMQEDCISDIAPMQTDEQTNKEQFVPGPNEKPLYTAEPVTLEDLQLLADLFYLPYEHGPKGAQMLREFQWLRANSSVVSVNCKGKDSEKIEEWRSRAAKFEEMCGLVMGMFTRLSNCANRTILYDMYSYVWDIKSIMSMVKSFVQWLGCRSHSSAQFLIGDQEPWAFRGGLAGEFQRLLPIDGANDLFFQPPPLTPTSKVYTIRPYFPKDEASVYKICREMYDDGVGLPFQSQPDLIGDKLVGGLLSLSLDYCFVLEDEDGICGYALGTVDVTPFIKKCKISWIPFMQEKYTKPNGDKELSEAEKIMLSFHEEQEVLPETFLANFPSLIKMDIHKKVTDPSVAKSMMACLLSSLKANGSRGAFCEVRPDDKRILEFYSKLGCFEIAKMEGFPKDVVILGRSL

[7] = tested on: MDR1; test: Apparent permeability in pig LLC-PK1 cells transfected with MDR1; format: ADME, cell-based, Sus scrofa
[8] = Volume of distribution at steady state in Wistar Han rat at 2 mg/kg, iv or 3 mg/kg, po; format: ADME, organism-based; settings: in vivo, read-out: Vdss
[9] = Ratio of drug uptake in rat brain to plasma at 3 mg/kg, po measured after 8 hrs; format: ADME, organism-based; settings: read-out: BPR
[10] = Fraction unbound in human plasma at 2.5 uM by equilibrium dialysis; format: ADME, cell-free
[11] = biological target: T3, Protein O-GlcNAcase (Rattus norvegicus, UniProt Q8VIJ5); test: Inhibition of OGA in rat PC12 cells assessed as OGlcNAcylated protein level incubated for 24 hrs by ELISA; format: cell-based
T3 sequence (Q8VIJ5 whole entry): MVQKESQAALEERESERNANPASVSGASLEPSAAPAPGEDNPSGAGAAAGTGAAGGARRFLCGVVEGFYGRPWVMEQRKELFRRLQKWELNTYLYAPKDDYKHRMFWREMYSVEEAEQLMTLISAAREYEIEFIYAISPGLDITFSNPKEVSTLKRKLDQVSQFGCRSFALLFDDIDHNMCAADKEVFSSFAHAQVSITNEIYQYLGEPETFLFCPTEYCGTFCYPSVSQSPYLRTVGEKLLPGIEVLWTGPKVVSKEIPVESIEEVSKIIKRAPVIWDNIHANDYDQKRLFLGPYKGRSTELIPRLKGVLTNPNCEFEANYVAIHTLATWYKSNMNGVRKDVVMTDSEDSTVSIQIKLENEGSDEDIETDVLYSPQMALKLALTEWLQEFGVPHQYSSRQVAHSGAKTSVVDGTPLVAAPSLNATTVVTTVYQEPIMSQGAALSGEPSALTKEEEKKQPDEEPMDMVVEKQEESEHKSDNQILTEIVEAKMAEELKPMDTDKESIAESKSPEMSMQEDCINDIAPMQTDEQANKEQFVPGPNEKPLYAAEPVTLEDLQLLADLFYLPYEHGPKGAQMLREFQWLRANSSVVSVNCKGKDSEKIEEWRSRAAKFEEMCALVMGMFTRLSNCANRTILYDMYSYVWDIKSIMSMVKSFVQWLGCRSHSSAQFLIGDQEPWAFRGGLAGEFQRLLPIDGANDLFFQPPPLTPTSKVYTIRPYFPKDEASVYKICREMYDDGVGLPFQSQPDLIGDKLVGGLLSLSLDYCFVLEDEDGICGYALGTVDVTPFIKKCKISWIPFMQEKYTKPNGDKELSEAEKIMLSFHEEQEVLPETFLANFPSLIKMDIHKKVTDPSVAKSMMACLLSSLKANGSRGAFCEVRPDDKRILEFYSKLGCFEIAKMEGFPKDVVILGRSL

[12] = Ratio of drug uptake in rat brain to plasma at 3 mg/kg, po measured after 24 hrs; format: ADME, organism-based; settings: read-out: BPR
[13] = Drug uptake in rat brain at 3 mg/kg, po measured after 8 hrs; format: ADME, organism-based; settings: in vivo
[14] = Oral bioavailability in Wistar Han rat at 3 mg/kg; format: ADME, organism-based; settings: in vivo
[15] = Clearance in Wistar Han rat at 2 mg/kg, iv; format: ADME, organism-based; settings: in vivo
[16] = tested on: Rattus norvegicus; test: Elevation of O-protein in rat brain at 3 mg/kg, po measured after 24 hrs relative to control; format: functional
[17] = Half life in Wistar Han rat at 2 mg/kg, iv; format: ADME, organism-based; settings: in vivo
[18] = AUC (0 to 24 hrs) in rat brain at 10 mg/kg, po measured upto 24 hrs; format: ADME, organism-based; design: dose 10 mg/kg, time < 24 hr, route oral; settings: in vivo
[19] = tested on: Rattus norvegicus; test: Elevation of O-protein in rat brain at 10 mg/kg, po measured after 24 hrs; format: functional
[20] = tested on: Rattus norvegicus; test: Increase in O-protein AUC in rat brain at 10 mg/kg, po measured upto 24 hrs; format: ADME, organism-based; settings: in vivo
[21] = Tmax in rat brain at 10 mg/kg, po measured upto 24 hrs; format: ADME, organism-based
[22] = biological target: Cytochrome P450 2D6 (Homo sapiens, UniProt P10635); test: Inhibition of CYP2D6 (unknown origin); format: ADME
[23] = biological target: Cytochrome P450 3A4 (Homo sapiens, UniProt P08684); test: Inhibition of CYP3A4 (unknown origin); format: ADME
[24] = biological target: Voltage-gated inwardly rectifying potassium channel KCNH2 (Homo sapiens, UniProt Q12809); test: Displacement of MK-0499 from human ERG
[25] = biological target: Sodium channel protein type 5 subunit alpha (Homo sapiens, UniProt Q14524); test: Inhibition of Nav1.5 (unknown origin)
[26] = biological target: T4, Nuclear receptor subfamily 1 group I member 2 (Homo sapiens, UniProt O75469); test: Activation of PXR (unknown origin) assessed as CYP3A4 induction
T4 sequence (O75469 whole entry): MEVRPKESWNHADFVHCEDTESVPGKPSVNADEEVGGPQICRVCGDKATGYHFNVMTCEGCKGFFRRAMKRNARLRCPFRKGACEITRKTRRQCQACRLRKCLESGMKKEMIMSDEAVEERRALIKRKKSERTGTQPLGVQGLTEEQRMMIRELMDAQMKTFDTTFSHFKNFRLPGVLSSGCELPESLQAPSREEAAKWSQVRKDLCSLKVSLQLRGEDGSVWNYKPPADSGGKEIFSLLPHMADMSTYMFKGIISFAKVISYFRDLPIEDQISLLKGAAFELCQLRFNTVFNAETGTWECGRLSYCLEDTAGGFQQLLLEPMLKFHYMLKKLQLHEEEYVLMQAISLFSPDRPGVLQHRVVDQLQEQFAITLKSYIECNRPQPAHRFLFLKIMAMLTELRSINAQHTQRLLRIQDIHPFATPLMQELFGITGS

[27] = biological target: Cytochrome P450 2C9 (Homo sapiens, UniProt P11712); test: Inhibition of CYP2C9 (unknown origin); format: ADME
[28] = biological target: Voltage-dependent L-type calcium channel subunit alpha-1C (Homo sapiens, UniProt Q13936); test: Inhibition of Cav1.2 (unknown origin)
[29] = Volume of distribution at steady state in Wistar Han rat at 2 mg/kg, iv or 10 mg/kg, po; format: ADME, organism-based; settings: in vivo, read-out: Vdss
[30] = Oral bioavailability in Wistar Han rat at 10 mg/kg; format: ADME, organism-based; settings: in vivo
[31] = AUCN in Wistar Han rat at 10 mg/kg, po; format: ADME, organism-based; settings: in vivo

Sequence of Voltage-dependent L-type calcium channel subunit alpha-1C (Q13936 whole entry): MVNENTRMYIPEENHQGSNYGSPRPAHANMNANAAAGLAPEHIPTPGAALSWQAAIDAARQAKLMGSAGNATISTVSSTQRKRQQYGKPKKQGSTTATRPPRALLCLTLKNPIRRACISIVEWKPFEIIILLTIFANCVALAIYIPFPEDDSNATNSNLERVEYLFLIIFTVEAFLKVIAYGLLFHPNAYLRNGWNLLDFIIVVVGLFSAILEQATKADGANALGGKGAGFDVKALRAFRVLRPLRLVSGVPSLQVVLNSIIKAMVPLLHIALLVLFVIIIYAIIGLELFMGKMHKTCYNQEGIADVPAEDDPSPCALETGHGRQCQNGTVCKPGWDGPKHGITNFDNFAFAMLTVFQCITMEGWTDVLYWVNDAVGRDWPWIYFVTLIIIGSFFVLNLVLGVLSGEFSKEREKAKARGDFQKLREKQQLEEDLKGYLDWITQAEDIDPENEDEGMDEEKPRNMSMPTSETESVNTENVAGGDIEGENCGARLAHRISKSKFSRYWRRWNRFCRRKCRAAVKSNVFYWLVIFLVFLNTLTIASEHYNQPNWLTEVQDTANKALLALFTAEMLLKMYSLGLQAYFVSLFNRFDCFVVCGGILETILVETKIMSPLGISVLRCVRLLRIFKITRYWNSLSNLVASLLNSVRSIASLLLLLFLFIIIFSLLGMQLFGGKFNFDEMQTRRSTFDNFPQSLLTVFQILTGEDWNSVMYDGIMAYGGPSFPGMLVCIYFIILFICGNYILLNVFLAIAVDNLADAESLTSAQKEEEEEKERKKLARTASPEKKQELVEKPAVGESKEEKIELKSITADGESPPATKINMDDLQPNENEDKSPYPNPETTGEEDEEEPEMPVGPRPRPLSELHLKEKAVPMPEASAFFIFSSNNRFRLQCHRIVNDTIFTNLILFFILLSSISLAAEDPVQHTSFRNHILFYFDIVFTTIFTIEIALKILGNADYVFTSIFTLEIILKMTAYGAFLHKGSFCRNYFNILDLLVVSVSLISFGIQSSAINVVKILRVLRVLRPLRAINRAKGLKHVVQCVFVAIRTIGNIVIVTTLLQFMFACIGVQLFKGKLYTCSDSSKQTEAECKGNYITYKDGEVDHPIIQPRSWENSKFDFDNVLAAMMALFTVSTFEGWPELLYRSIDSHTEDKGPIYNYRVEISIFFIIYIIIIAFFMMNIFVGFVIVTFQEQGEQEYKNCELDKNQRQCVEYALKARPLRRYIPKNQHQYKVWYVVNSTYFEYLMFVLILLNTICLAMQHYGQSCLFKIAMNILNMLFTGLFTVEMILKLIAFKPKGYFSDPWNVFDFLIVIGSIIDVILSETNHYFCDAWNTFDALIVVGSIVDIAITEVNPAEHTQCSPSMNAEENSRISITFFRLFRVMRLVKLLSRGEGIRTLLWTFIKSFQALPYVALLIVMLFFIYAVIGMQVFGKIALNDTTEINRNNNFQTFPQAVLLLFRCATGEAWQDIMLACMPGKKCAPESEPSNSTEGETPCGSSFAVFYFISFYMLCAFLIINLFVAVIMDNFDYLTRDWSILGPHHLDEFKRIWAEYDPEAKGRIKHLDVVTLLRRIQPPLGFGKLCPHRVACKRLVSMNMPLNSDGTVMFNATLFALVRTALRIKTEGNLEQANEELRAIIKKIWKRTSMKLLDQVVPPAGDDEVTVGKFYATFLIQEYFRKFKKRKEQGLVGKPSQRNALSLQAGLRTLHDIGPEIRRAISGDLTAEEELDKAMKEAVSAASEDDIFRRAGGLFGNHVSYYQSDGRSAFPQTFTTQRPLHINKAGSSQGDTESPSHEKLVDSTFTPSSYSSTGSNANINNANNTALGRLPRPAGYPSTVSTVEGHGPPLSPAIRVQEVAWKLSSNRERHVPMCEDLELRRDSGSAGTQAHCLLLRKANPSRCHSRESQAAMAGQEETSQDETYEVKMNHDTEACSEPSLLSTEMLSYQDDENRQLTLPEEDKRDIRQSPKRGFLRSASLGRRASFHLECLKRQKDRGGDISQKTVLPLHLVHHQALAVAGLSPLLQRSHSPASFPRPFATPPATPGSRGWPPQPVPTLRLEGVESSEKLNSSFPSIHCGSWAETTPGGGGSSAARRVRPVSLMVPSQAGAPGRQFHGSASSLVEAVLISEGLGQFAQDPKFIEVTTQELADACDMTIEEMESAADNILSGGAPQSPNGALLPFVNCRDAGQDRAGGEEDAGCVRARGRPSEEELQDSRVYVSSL
Sequence of Voltage-gated inwardly rectifying potassium channel KCNH2 (Q12809 whole entry): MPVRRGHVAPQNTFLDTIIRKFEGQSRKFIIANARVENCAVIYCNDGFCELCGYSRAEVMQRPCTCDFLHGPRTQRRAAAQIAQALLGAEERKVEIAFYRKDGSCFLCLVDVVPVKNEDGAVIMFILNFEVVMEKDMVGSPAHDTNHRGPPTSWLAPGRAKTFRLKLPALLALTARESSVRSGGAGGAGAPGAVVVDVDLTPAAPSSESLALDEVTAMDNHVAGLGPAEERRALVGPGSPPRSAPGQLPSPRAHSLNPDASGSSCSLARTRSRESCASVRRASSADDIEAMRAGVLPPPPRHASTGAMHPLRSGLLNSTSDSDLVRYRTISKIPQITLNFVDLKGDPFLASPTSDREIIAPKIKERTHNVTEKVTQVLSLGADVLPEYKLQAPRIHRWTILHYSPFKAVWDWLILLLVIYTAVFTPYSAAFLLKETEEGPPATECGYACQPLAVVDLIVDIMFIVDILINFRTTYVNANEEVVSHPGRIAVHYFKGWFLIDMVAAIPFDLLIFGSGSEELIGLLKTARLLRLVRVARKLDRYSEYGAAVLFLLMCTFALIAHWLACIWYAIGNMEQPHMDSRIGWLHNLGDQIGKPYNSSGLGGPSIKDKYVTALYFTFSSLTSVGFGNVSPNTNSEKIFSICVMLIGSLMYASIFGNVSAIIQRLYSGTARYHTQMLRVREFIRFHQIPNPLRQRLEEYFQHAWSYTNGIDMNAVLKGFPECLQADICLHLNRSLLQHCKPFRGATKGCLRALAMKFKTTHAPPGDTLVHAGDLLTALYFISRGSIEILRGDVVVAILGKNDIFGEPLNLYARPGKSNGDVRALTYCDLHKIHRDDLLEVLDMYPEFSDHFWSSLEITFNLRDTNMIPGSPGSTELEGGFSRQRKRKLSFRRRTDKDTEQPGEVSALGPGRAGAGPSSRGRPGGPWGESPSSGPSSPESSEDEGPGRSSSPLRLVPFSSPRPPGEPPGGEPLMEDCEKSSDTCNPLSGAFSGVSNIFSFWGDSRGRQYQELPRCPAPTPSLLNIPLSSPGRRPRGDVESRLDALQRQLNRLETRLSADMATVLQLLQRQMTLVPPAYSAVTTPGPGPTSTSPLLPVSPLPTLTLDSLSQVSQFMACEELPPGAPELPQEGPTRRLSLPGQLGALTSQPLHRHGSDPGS
Sequence of Cytochrome P450 2D6 (P10635 whole entry): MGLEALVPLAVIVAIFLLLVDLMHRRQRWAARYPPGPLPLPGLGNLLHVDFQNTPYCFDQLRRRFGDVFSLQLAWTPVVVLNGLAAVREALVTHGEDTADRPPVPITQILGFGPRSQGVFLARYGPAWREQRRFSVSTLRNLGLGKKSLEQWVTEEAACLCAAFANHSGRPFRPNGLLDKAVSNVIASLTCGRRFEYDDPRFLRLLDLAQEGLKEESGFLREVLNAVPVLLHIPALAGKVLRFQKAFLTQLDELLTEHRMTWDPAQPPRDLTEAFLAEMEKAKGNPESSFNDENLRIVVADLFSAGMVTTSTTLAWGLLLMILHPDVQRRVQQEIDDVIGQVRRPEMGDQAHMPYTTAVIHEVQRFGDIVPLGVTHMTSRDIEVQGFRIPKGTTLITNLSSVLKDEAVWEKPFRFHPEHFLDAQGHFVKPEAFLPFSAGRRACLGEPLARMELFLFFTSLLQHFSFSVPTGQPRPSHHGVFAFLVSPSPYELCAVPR
Sequence of Cytochrome P450 2C9 (P11712 whole entry): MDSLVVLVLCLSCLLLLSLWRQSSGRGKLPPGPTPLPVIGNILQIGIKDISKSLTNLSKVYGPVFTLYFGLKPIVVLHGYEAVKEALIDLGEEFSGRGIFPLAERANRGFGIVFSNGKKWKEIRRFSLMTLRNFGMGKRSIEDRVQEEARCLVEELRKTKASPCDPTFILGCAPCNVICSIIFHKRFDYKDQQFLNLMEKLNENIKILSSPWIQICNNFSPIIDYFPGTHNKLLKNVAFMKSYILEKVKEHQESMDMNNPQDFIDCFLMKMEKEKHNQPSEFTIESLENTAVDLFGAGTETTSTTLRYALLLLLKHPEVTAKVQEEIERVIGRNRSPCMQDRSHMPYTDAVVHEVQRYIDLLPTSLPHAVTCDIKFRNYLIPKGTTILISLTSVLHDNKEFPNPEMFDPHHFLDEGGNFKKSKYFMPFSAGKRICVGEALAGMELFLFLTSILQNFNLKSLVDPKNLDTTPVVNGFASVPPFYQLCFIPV
Sequence of Cytochrome P450 3A4 (P08684 whole entry): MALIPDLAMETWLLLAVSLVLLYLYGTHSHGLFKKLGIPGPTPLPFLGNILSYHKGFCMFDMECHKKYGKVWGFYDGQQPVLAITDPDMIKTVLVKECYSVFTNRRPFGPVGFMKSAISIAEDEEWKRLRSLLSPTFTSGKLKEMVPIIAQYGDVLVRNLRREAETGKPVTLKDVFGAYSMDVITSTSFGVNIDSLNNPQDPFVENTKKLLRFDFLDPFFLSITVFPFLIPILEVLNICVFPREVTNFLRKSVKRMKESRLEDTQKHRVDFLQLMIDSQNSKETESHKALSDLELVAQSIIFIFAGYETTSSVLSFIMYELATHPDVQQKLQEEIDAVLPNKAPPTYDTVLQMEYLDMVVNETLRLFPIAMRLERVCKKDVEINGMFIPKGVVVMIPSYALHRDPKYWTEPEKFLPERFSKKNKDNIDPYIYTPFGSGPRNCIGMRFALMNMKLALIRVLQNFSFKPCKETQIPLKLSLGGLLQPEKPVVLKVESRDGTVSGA

Structure (SMILES)	Ki [1]	fraction unbound at 2.5 µM [2]	fold change (FC) [3]	Drug uptake [4]	AUC/dose [5]	Ki [6]	Papp [7]	Vd [8]	Kp at 8 h [9]	fraction unbound at 2.5 µM [10]	EC50 [11]	Kp at 24 h [12]	Drug uptake [13]	bioavailability [14]	clearance [15]	fold change (FC) [16]	half-life [17]	AUC [18]	fold change (FC) [19]	fold change (FC) [20]	other results
CNC1=N[C@@H]2[C@@H](O)[C@H](O)[C@@H](CF)O[C@@H]2S1	790 nM	0.88	2.44	0.025 nmol/g	3.36 µM·kg·h/mg	0.55 nM	5.3 ×10⁻⁶ cm/s	1.79 L/kg	0.6	0.96	34.4 nM	≥ 7.9	0.068 nmol/g	132%	27.8 mL/min/kg	1.65	1.71 h	–	–	–	–
CNC1=N[C@@H]2[C@H](F)[C@H](O)[C@@H](C(F)F)O[C@@H]2S1	> 10000 nM	0.93	2.51	–	4.27 µM·kg·h/mg	23 nM	20 ×10⁻⁶ cm/s	2.96 L/kg	0.189	0.97	58.2 nM	–	0.142 nmol/g	90.4%	11.4 mL/min/kg	–	4.29 h	35.91 nM·h/g	2.04	11.69	Tmax [21]: 8 h
CCNC1=N[C@@H]2[C@@H](O)[C@H](O)[C@@H](CF)O[C@@H]2S1	–	0.98	1.84	0.047 nmol/g	1.77 µM·kg·h/mg	20 nM	6.1 ×10⁻⁶ cm/s	3.8 L/kg	1.49	0.87	176 nM	≥ 18.7	0.228 nmol/g	102%	37.4 mL/min/kg	1.74	2.39 h	–	–	–	IC50 [22]: > 50000 nM; IC50 [23]: > 50000 nM; IC50 [24]: > 30000 nM; IC50 [25]: > 30000 nM; EC50 [26]: > 30000 nM; IC50 [27]: > 50000 nM; IC50 [28]: > 30000 nM
CCNC1=N[C@@H]2[C@@H](F)[C@H](O)[C@@H](CO)O[C@@H]2S1	> 10000 nM	–	–	–	–	29 nM	2.7 ×10⁻⁶ cm/s	–	–	–	443 nM	–	–	–	31.9 mL/min/kg	–	2.4 h	–	–	–	Vd [29]: 2 L/kg; bioavailability [30]: 104%; IC50 [22]: > 50000 nM; IC50 [23]: > 50000 nM; AUC/dose [31]: 2.16 µM·kg·h/mg; IC50 [24]: > 30000 nM; IC50 [25]: > 30000 nM; EC50 [26]: > 30000 nM; IC50 [27]: > 50000 nM; IC50 [28]: > 30000 nM
CNC1=N[C@@H]2C[C@H](O)[C@@H](C(F)F)O[C@@H]2S1	> 10000 nM	0.88	1.8	–	1.9 µM·kg·h/mg	–	24 ×10⁻⁶ cm/s	2.23 L/kg	2.22	> 0.99	–	–	0.289 nmol/g	74.7%	30.4 mL/min/kg	–	1.66 h	53.87 nM·h/g	2.69	19.68	Tmax [21]: 8 h
CN(C)C1=N[C@@H]2[C@@H](O)[C@H](O)[C@@H](CF)O[C@@H]2S1	1600 nM	> 0.99	2.33	0.038 nmol/g	0.954 µM·kg·h/mg	9 nM	6.8 ×10⁻⁶ cm/s	10.5 L/kg	0.9	> 0.99	177 nM	1.53	0.222 nmol/g	75.3%	43.7 mL/min/kg	1.77	–	–	–	–	–
